Measured values from patent US20140357512A1, “HISTONE DEACETYLASE (HDAC) BIOMARKERS IN MULTIPLE MYELOMA” (priority 2013, published 2014).

Tested on: human myeloma cell line MM.1S
Assay: SILAC acetylated-lysine peptide profiling, HDAC inhibitor vs DMSO (light/heavy ratio)
Format: cell-based
Description: An embodiment of the invention comprises utilizing the SILAC method in order to quantitate changes in protein expression between two or more populations of cells. The SILAC method is a technique based on mass spectrometry that detects differences in protein abundance among samples using non-radioactive isotopic labeling. The SILAC method is known in the art, and described in detail in Ong et al., “Stable Isotope Labeling by Amino Acids in Cell Culture, SILAC, as a Simple and Accurate Approach to Expression Proteomics”, Molecular & Cellular Proteomics, vol. 1, pp. 376-386 (2002), which is incorporated herein by reference in its entirety.
Briefly, the SILAC method involves growing two populations of cells in cell culture. The first population of cells is grown in growth media containing normal amino acids (“normal media”). The second population of cells is grown in media lacking a standard essential amino acid (such as lysine), but is then supplemented with a non-radioactive, isotopically labeled form of that essential amino acid (such as lysine labeled with ^13C atoms, rather than normal ^12C atoms), which is called “heavy media”. When the two populations of cells are each growing in the medium, they incorporate the amino acids into all of their proteins. The growth of cells maintained in the heavy media is no different from that in normal media. All peptides containing the heavy amino acids are heavier than their normal counterparts. The cells from each of the two populations of cells are lysed. The lysates from each of the two cell populations are then combined. The combined cell lysates are then analyzed by mass spectrometry. Pairs of chemically identical peptides of different stable isotope composition can be differentiated in a mass spectrometer due to their difference in mass. The ratio of peak intensities in the mass spectrum for such peptide pairs reflects the abundance ratio for the two proteins.
This example describes SILAC studies that were performed to compare the effects of three different HDAC inhibitors (Compound A, Compound B, and tubastatin A) to a control on a human multiple myeloma cell line. The HDAC inhibitors were also compared amongst themselves to determine differences in their effects.
A human myeloma cell line MM.1S was grown using either ^12C (light) or ^13C (heavy) lysine containing culture medium. The “heavy” cells were treated with DMSO as the control, and the “light” cells were treated with a single HDAC inhibitor at 37° C. for 6 hours. The heavy and light cells were lysed, and the lysates were mixed in 1:1 ratio and digested with the protease trypsin. The acetylated lysine containing peptides (due to the action of the HDAC inhibitor) in the digested peptide pool were captured by a non-specific anti-acetylated lysine antibody cocktail (the antibodies identify both light and heavy acetylated peptides), and subjected to mass spectrometry analysis in order to identify thousands of individual peptides.
Thousands of peptides were identified in pairs (^12C and ^13C) due to their known mass differences. The amino acid sequence and quantitative ratio (Light/Heavy) of a given peptide in two differentially treated cell lysates were then determined and annotated with their possible protein (gene) sources.
As stated above, three HDAC inhibitors (Compound A, Compound B, and Tubastatin A) were used. Thus, the SILAC method was performed three times, with a different HDAC inhibitor compared to a control each time. Accordingly, there are three pairs of quantitative data in the table below, i.e., Compound A:DMSO, Compound B:DMSO, and Tubastatin A:DMSO. A cut-off of 1.30 fold of change (increase or decrease) was then used to determine “changed” or “+” in the table, and any peptides with a fold of change less than 1.3 fold were determined to be “unchanged” or “0” in the table. Those peptides that were not identified were marked as “NA” in the table. […]

SMILES: O=C(NO)c1cnc(NC2(c3cccc(F)c3)CCCCC2)nc1 [Compound B, 2-((1-(3-fluorophenyl)cyclohexyl)amino)-N-hydroxypyrimidine-5-carboxamide]
- L/H ratio of acetylated peptide LDHLAEK(ac)FR (SEQ ID NO: 20) (ACTN1 [398], log 2 scale, drug vs DMSO): 0.00
- L/H ratio of acetylated peptide […](ac)FVYQAK (SEQ ID NO: 126) (ADAR [757], log 2 scale, drug vs DMSO): 0.00
- light to heavy ratio (L/H ratio) of acetylated peptide, log 2 scale (ADINTK(ac)WAATR (SEQ ID NO: 202), Ribosomal protein L14 variant [85], RPL14): 0.00
- light to heavy ratio (L/H ratio) of acetylated peptide, log 2 scale (ADK(ac)DYHFK (SEQ ID NO: 191), Isoform 2 of Nucleophosmin [27], NPM1): 0.00
- light to heavy ratio (L/H ratio) of acetylated peptide TTLLYK(ac)LK (SEQ ID NO: 624) (ADP-ribosylation factor-like protein 11 [31], gene ARL11, inhibitor:DMSO): 0.00 log 2
- light to heavy ratio (L/H ratio) of acetylated peptide IFK(ac)SDGLR (SEQ ID NO: 280) (ADP/ATP translocase 1 [166], SLC25A4, drug:DMSO): 0.00 log 2
- light to heavy ratio (L/H ratio) of acetylated peptide ITK(ac)SDGIR (SEQ ID NO: 587) (ADP/ATP translocase 3 [166], gene SLC25A6, inhibitor:DMSO): 0.00 log 2
- L/H ratio of acetylated peptide (AELSK(ac)LVIVAK (SEQ ID NO: 370), UPF0556 protein C19orf10 [161], C19orf10): 1.00 log 2
- L/H ratio of acetylated peptide HLSDSINQK(ac)HFEQAIER (AFG3L2 [543], log 2 scale, drug vs DMSO): 0.00
- L/H ratio of acetylated peptide (AFQLK(ac)SR (SEQ ID NO: 439), ribonucleoprotein PTB-binding 1 [579], RAVER1): −0.89 log 2
- light to heavy ratio (L/H ratio) of acetylated peptide, log 2 scale (AFYK(ac)SFSK (SEQ ID NO: 170), Endoplasmin [360], HSP90B1): 0.00
- L/H ratio of acetylated peptide (AK(ac)FESMAEEK (SEQ ID NO: 402), Hematopoietic lineage cell-specific protein [241], HCLS1): 1.00 log 2
- light to heavy ratio (L/H ratio) of acetylated peptide, log 2 scale (ALDLNLK(ac)HQILPK (SEQ ID NO: 248), Cytochrome b-c1 complex subunit 7 [72], UQCRB): 0.00
- L/H ratio of acetylated peptide LK(ac)[…] (SEQ ID NO: 21) (ANP32B [101], log 2 scale, drug vs DMSO): 0.00
- L/H ratio of acetylated peptide […](ac)SLYGK (SEQ ID NO: 22) (ANXA6 [63], log 2 scale, drug vs DMSO): 0.00
- L/H ratio of acetylated peptide LGTDESK(ac)FNAVLCSR (SEQ ID NO: 7) (ANXA11 [478], log 2 scale, drug vs DMSO): 0.50
- L/H ratio of acetylated peptide MYFDK(ac)[…] (SEQ ID NO: 23) (ATAD3A [491], log 2 scale, drug vs DMSO): 0.00
- L/H ratio of acetylated peptide (ATAEEMTK(ac)YHSDEYIK (SEQ ID NO: 403), Histone deacetylase 2[161], HDAC2): 0.78 log 2
- L/H ratio of acetylated peptide IVEYEK(ac)EMEK (SEQ ID NO: 24) (ATP5H [117], log 2 scale, drug vs DMSO): 0.00
- L/H ratio of acetylated peptide YYNK(ac)YINVK (SEQ ID NO: 12) (ATP5J2 [54], log 2 scale, drug vs DMSO): −0.43
- light to heavy ratio (L/H ratio) of acetylated peptide QNK(ac)LEQVEK (SEQ ID NO: 271) (ATP synthase subunit O mitochondrial [54], ATP50, drug:DMSO): 0.00 log 2
- light to heavy ratio (L/H ratio) of acetylated peptide ISEQSDAK(ac)LK (SEQ ID NO: 600) (ATP synthase subunit alpha mitochondrial [539], gene ATP5A1, inhibitor:DMSO): 0.00 log 2
- light to heavy ratio (L/H ratio) of acetylated peptide […](ac)ETIAK (SEQ ID NO: 307) (ATP synthase subunit b mitochondrial [233], ATP5F1, drug:DMSO): 0.00 log 2
- light to heavy ratio (L/H ratio) of acetylated peptide […](ac)QLTVK (SEQ ID NO: 279) (ATP synthase subunit g mitochondrial [66], ATP5L, drug:DMSO): 0.00 log 2
- light to heavy ratio (L/H ratio) of acetylated peptide ELDPIQK(ac)LFVDK (SEQ ID NO: 365) (ATP synthase-coupling factor 6 mitochondrial [41], ATP5J, drug:DMSO): −0.48 log 2
- light to heavy ratio (L/H ratio) of acetylated peptide FEDPK(ac)FEVIEKPQA (SEQ ID NO: 325) (ATP synthase-coupling factor 6 mitochondrial [99], ATP5J, drug:DMSO): −0.50 log 2
- light to heavy ratio (L/H ratio) of acetylated peptide, log 2 scale (AVEEK(ac)[…] (SEQ ID NO: 172), 78 kDa glucose-regulated protein [601], HSPA5): 0.00
- L/H ratio of acetylated peptide (AVSMDNSNK(ac)YTK (SEQ ID NO: 396), Forkhead box protein O3 [259], FOXO3): 0.45 log 2
- L/H ratio of acetylated peptide (AYHLQK(ac)STCGK (SEQ ID NO: 443), 60S ribosomal protein L37 [31], RPL37): 0.42 log 2
- light to heavy ratio (L/H ratio) of acetylated peptide NAYVWTLK(ac)GR (SEQ ID NO: 361) (Actin-related protein 2/3 complex subunit 1B [82], ARPC1B, ARPC1A, drug:DMSO): −1.00 log 2
- light to heavy ratio (L/H ratio) of acetylated peptide VFDPQNDK(ac)[…] (SEQ ID NO: 362) (Actin-related protein 2/3 complex subunit 3 [155], ARPC3, drug:DMSO): 0.45 log 2
- light to heavy ratio (L/H ratio) of acetylated peptide AFAK(ac)ELFLGK (SEQ ID NO: 627) (Acyl-CoA dehydrogenase family member 9 mitochondrial [41], gene ACAD9, inhibitor:DMSO): 0.00 log 2
